BindingDB's records for doi:10.1016/j.bioorg.2017.04.005 (Shenyang Pharmaceutical University, 2017)
Where a SMILES comes first, the peptide text is derived from it. [ ]: non-standard residue; d: D form. pY = N[C@@H](Cc1ccc(OP(=O)(O)O)cc1)C(=O)O

Target: T1, Histone-lysine N-methyltransferase EHMT2 (Homo sapiens, UniProt Q96KQ7)
T1 sequence (Q96KQ7 whole entry): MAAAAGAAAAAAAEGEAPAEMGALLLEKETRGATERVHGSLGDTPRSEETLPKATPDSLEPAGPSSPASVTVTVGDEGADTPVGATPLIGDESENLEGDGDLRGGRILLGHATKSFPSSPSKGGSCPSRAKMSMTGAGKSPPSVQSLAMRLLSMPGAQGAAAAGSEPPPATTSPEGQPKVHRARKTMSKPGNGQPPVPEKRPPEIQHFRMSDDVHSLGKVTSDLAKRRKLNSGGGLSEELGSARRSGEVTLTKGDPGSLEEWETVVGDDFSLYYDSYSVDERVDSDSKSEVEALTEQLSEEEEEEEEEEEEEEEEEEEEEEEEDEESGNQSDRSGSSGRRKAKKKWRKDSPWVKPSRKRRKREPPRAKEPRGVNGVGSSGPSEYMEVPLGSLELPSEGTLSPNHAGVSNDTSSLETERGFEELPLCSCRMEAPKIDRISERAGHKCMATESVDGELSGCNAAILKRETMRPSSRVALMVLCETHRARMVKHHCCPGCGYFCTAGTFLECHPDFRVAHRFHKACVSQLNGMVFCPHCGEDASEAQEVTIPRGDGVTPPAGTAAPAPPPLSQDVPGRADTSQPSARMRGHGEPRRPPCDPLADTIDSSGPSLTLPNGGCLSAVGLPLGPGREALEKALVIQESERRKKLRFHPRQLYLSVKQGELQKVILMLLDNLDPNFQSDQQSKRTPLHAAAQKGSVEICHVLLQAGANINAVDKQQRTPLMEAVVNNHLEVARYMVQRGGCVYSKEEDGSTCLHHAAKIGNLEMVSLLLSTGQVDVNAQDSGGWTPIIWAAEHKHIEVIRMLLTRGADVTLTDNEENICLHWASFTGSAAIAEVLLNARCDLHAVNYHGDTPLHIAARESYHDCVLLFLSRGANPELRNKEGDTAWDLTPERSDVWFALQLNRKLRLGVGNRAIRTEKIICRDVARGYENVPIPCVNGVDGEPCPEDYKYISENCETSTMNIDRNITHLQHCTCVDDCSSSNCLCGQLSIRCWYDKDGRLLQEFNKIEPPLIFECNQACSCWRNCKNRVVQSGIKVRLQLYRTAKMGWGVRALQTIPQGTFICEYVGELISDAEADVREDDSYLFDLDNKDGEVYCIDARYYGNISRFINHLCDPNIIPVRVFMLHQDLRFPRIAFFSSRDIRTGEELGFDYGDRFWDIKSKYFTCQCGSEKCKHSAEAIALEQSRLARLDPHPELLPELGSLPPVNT
Assay: Enzymatic Assay
Conditions: pH 8.5; 25 °C
Procedure: Biochemical activity of G9a was measured as described [Kubicek et al., Mol. Cell, 25:473-481]. Assays were performed in white, opaque 384-well plates coated with Neutravidin (Pierce Biotechnology). Brd 4770 was used as a positive control. Test compounds were diluted to 12 μg/ml in Baffer A (50 mM Tris-HCl pH 8.5 containing 4% DMSO) and 10 μl was dispensed into the wells. Blank and control wells received only compound buffer. GST-G9a at 10 μg/ml and SAM at 40 μM were diluted in Buffer B (50 mM Tris HCl pH 8.5/10 mM DTT) and added in a volume of 20 μL. Blank wells received Tris/DTT buffer only. The reactions were initiated by the addition of 800 nM H3 (1-20)-cysbiotin substrate in Buffer C (50 mM Tris pH 8.5) in a volume of 10 μL, and incubated at room temperature for 60 min. The plates were washed 3 times with 100 μL of Wash Buffer (50 mM Tris pH 7.4, 150 mM NaCl, 0.05% Tween 20, 0.2% BSA). Next, 50 μl of Fluoroimmunoassay (FI) Buffer (50 mM Tris HCl pH 7.8, 150 mM NaCl, 0.05% Tween 40, 25 μM DTPA, 0.2% BSA, 0.05% BGG) containing 5 ng α-2X-di-meth H3-K9 and 5 ng goat anti-rabbit Eu chelate (Perkin Elmer Life Sciences) was added to all wells of the plate, and the plate was incubated for an additional hour at room temperature. The plates were washed 3 times with 100 μL of Wash Buffer, and 50 μL of Enhancement Solution (Perkin Elmer Life Sciences) was added to each well. Time resolved fluorescence was measured after 45 min on a Viewlux Microplate Imager (Perkin Elmer Life Sciences) imaging for 15 s with a 354 μs window, 400 μs delay, excitation at 360 nm, and emission at 618 nm.

IC50 [µM]	Compound
20.8	O=S(=O)(Nc1ccc2c(c1)nc(-c1ccccc1)n2CCCc1ccccc1)c1ccccc1Br [2-Bromo-N-(2-phenyl-1-(3-phenylpropyl)-1H-benzo[d]imidazol-5-yl)benzenesulfonamide (19)]
> 40	O=S(=O)(Nc1ccc2nc(-c3ccccc3)oc2c1)c1ccccc1Br [2-Bromo-N-(2-phenylbenzo[d]oxazol-6-yl)benzenesulfonamide (8)]
9.59	O=C(Nc1ccc2c(c1)nc(-c1ccccc1)n2CCCc1ccccc1)c1ccccc1F [2-Fluoro-N-(2-phenyl-1-(3-phenylpropyl)-1H-benzo[d]imidazol-5-yl)benzamide (21)]
> 40	O=C(Nc1ccc2nc(-c3ccccc3)oc2c1)c1ccccc1F [2-Fluoro-N-(2-phenylbenzo[d]oxazol-6-yl)benzamide (11)]
1.75	COc1ccccc1C(=O)Nc1ccc2c(c1)nc(-c1ccccc1)n2CCCc1ccccc1 [2-Methoxy-N-(2-phenyl-1-(3-phenylpropyl)-1H-benzo[d]imidazol-5-yl)benzamide (23)]
2.63	COc1ccccc1S(=O)(=O)Nc1ccc2c(c1)nc(-c1ccccc1)n2CCCc1ccccc1 [2-Methoxy-N-(2-phenyl-1-(3-phenylpropyl)-1H-benzo[d]imidazol-5-yl)benzenesulfonamide (14)]
12.8	COc1ccccc1C(=O)Nc1ccc2nc(-c3ccccc3)oc2c1 [2-Methoxy-N-(2-phenylbenzo[d]oxazol-6-yl)benzamide (10)]
1.32	O=C(Nc1ccc2c(c1)nc(-c1ccccc1)n2CCCc1ccccc1)c1cccc(Br)c1 [3-Bromo-N-(2-phenyl-1-(3-phenylpropyl)-1H-benzo[d]imidazol-5-yl)benzamide (22)]
15.3	O=C(Nc1ccc2nc(-c3ccccc3)oc2c1)c1cccc(Br)c1 [3-Bromo-N-(2-phenylbenzo[d]oxazol-6-yl)benzamide (12)]
35.4	O=[N+]([O-])c1cccc(S(=O)(=O)Nc2ccc3c(c2)nc(-c2ccccc2)n3CCCc2ccccc2)c1 [3-Nitro-N-(2-phenyl-1-(3-phenylpropyl)-1H-benzo[d]imidazol-5-yl)benzenesulfonamide (13)]
16.3	CC(C)(C)c1ccc(S(=O)(=O)Nc2ccc3c(c2)nc(-c2ccccc2)n3CCCc2ccccc2)cc1 [4-(tert-Butyl)-N-(2-phenyl-1-(3-phenylpropyl)-1H-benzo[d]imidazol-5-yl)benzenesulfonamide (20)]
36.3	CC(C)(C)c1ccc(S(=O)(=O)Nc2ccc3nc(-c4ccccc4)oc3c2)cc1 [4-(tert-Butyl)-N-(2-phenylbenzo[d]oxazol-6-yl)benzenesulfonamide (9)]
18.8	N#Cc1ccc(S(=O)(=O)Nc2ccc3c(c2)nc(-c2ccccc2)n3CCCc2ccccc2)cc1 [4-Cyano-N-(2-phenyl-1-(3-phenylpropyl)-1H-benzo[d]imidazol-5-yl)benzenesulfonamide (18)]
30.4	N#Cc1ccc(S(=O)(=O)Nc2ccc3nc(-c4ccccc4)oc3c2)cc1 [4-Cyano-N-(2-phenylbenzo[d]oxazol-6-yl)benzenesulfonamide (7)]
16.1	O=S(=O)(Nc1ccc2c(c1)nc(-c1ccccc1)n2CCCc1ccccc1)c1ccc(F)cc1 [4-Fluoro-N-(2-phenyl-1-(3-phenylpropyl)-1H-benzo[d]imidazol-5-yl)benzenesulfonamide (17)]
6.1	COC(=O)c1ccc2c(c1)nc(NC(=O)c1ccccc1)n2CCCc1ccccc1 [Brd4470]
15.3	CC(C)C[C@H](NC(=O)[C@H](CC(N)=O)NC(=O)[C@@H](N)CC(=O)O)C(=O)N[C@@H](Cc1ccc(O)cc1)C(=O)N[C@@H](Cc1ccc(OP(=O)(O)O)cc1)C(=O)N[C@@H](Cc1c[nH]c2ccccc12)C(=O)N[C@@H](CC(=O)O)C(=O)N[C@@H](CCC(N)=O)C(=O)N[C@@H](CC(=O)O)C(=O)N1CCC[C@H]1C(=O)N1CCC[C@H]1C(=O)O [ErbB2-pep] (H-DNLY[pY]WDQDPP-OH)
19	CC(C)[C@H](NC(=O)[C@@H](N)CCC(=O)O)C(=O)N[C@@H](CO)C(=O)N[C@@H](Cc1ccccc1)C(=O)N[C@@H](Cc1ccc(OP(=O)(O)O)cc1)C(=O)N[C@@H](Cc1ccc(O)cc1)C(=O)N[C@@H](CO)C(=O)N[C@@H](CCC(=O)O)C(=O)N[C@@H](CCC(=O)O)C(=O)N[C@@H](CC(N)=O)C(=O)N[C@@H](CCCCN)C(=O)O [IGF1R-pep] (H-EVSF[pY]YSEENK-OH)
26.2	CC(C)[C@H](NC(=O)[C@H](CO)NC(=O)[C@H](CO)NC(=O)[C@@H]1CCCN1)C(=O)N[C@@H](Cc1ccc(OP(=O)(O)O)cc1)C(=O)N[C@H](C(=O)N1CCC[C@H]1C(=O)N[C@@H](CC(=O)O)C(=O)N[C@@H](CCC(=O)O)C(=O)N[C@@H](Cc1c[nH]c2ccccc12)C(=O)N[C@@H](CCC(=O)O)C(=O)O)C(C)C [IR-pep] (H-PSSV[pY]VPDEWE-OH)
21.9	O=S(=O)(Nc1ccc2c(c1)nc(-c1ccccc1)n2CCCc1ccccc1)c1ccc(OC(F)(F)F)cc1 [N-(2-phenyl-1-(3-phenylpropyl)-1H-benzo[d]imidazol-5-yl)-4-(trifluoromethoxy)benzenesulfonamide (16)]
16	O=S(=O)(Nc1ccc2c(c1)nc(-c1ccccc1)n2CCCc1ccccc1)c1ccc(C(F)(F)F)cc1 [N-(2-phenyl-1-(3-phenylpropyl)-1H-benzo[d]imidazol-5-yl)-4-(trifluoromethyl)benzenesulfonamide (15)]
12.2	O=C(Nc1ccc2c(c1)nc(-c1ccccc1)n2CCCc1ccccc1)c1ccc(-c2ccccc2)cc1 [N-(2-phenyl-1-(3-phenylpropyl)-1H-benzo[d]imidazol-5-yl)-[1,1'-biphenyl]-4-carboxamide (24)]
